Test results: publication PMC7619385 (ACS infectious diseases, 2025)

target: NLuc::LmxCLK1 (Leishmania mexicana, UniProt E9AMP2); assay: cell-based; format: cell-based; settings: read-out: Target occupancy Average
Description: All compounds were tested at a fixed concentration of 10 µM to enable direct comparison of their target occupancy in live cells.
Serially diluted probes (5 µL) were added to 85 µL of cells in culture media or 85 µL of purified protein. Final well volumes were adjusted to 100 µL with sterile Opti-MEM™ I Reduced Serum Medium (Thermo-Scientific) – for wells containing cells; or Kinase Buffer - for wells containing purified protein. For tracer displacement assays, samples were prepared as above, but final volume was brought to 100 µL by addition of vehicle or serially-diluted test compounds. Final DMSO concentration in these assays was 1%. […] Light emissions at 460+10 nm (BRET donor) and at 610+20 nm (BRET acceptor) were sequentially recorded (integration time = 0.5 s, gain = 3600) using a luminometer (BMG LABTECH Clariostar or Biotek Synergy HT). BRET values are reported in milli-BRET (mBRET) units (mBU), obtained by dividing the acceptor luminescence by the donor luminescence and multiplying the result by a factor of 1,000. BRET values were converted to blank-corrected probe occupancies (%) according to equation [1]: (1) Probeoccupancy(%)=X−Z/Y−Z×100 where X = mBRET value in the presence of the test compound and the probe, Y = mBRET value in the presence of probe only, and Z = mBRET value in the absence of probe and test compound. […]

Going from `C[C@H]1[C@H](C)CC[C@]2(C(=O)O)CC[C@]3(C)C(=CC[C@@H]4[C@@]5(C)C[C@@H](O)[C@H](O)[C@@](C)(CO)[C@@H]5CC[C@]43C)[C@H]12` [Asiatic Acid] to `O=C(Nc1nc2cccc(-c3ccc(CN4CCS(=O)(=O)CC4)cc3)n2n1)C1CC1` [Filgotinib (GLPG0634)], the receptor occupancy at 10 µM falls from -4.4% to -15.3%.

Compared with `Cc1[nH]c(/C=C2\C(=O)Nc3ccc(S(=O)(=O)N(C)c4cccc(Cl)c4)cc32)c(C)c1C(=O)N1CCN(C)CC1` [SU11274], `CCS(=O)(=O)c1cccc(-c2cc(C(=O)NC3CCN(C)CC3)c(C)c3[nH]c4ncc(C)cc4c23)c1` [TAK-901] is higher in receptor occupancy at 10 µM: -6.7% for the first, -5.9% for the second.

Going from `O=C1NC(=O)/C(=C/c2ccc3nccc(-c4ccncc4)c3c2)S1` [GSK1059615] to `O=C(/C=C/c1ccc(O)c(O)c1)c1ccc(O)cc1O` [Butein], the receptor occupancy at 10 µM falls from -2.8% to -10.8%.

`COc1cccc2cc(-c3nc([C@H]4CC[C@H](C(=O)O)CC4)n4ncnc(N)c34)[nH]c12` [OSI-027] gave a receptor occupancy at 10 µM of -8.9%.

same assay, conditions: read-out: Target occupancy Run 1

First: C[C@H]1[C@H](C)CC[C@]2(C(=O)O)CC[C@]3(C)C(=CC[C@@H]4[C@@]5(C)C[C@@H](O)[C@H](O)[C@@](C)(CO)[C@@H]5CC[C@]43C)[C@H]12 [Asiatic Acid]
Second: O=C(Nc1nc2cccc(-c3ccc(CN4CCS(=O)(=O)CC4)cc3)n2n1)C1CC1 [Filgotinib (GLPG0634)]
The receptor occupancy at 10 µM of the first is higher: 8.6% for the first, -9.1% for the second.

Compared with `Cc1[nH]c(/C=C2\C(=O)Nc3ccc(S(=O)(=O)N(C)c4cccc(Cl)c4)cc32)c(C)c1C(=O)N1CCN(C)CC1` [SU11274], `CCS(=O)(=O)c1cccc(-c2cc(C(=O)NC3CCN(C)CC3)c(C)c3[nH]c4ncc(C)cc4c23)c1` [TAK-901] is higher in receptor occupancy at 10 µM: -7.3% for the first, -2.7% for the second.

First: O=C1NC(=O)/C(=C/c2ccc3nccc(-c4ccncc4)c3c2)S1 [GSK1059615]
Second: O=C(/C=C/c1ccc(O)c(O)c1)c1ccc(O)cc1O [Butein]
The receptor occupancy at 10 µM of the first is lower: -4.2% for the first, 3.3% for the second.

With `COc1cccc2cc(-c3nc([C@H]4CC[C@H](C(=O)O)CC4)n4ncnc(N)c34)[nH]c12` [OSI-027] the receptor occupancy at 10 µM was 5.5%.

same assay, conditions: read-out: Target occupancy Run 2

First: C[C@H]1[C@H](C)CC[C@]2(C(=O)O)CC[C@]3(C)C(=CC[C@@H]4[C@@]5(C)C[C@@H](O)[C@H](O)[C@@](C)(CO)[C@@H]5CC[C@]43C)[C@H]12 [Asiatic Acid]
Second: O=C(Nc1nc2cccc(-c3ccc(CN4CCS(=O)(=O)CC4)cc3)n2n1)C1CC1 [Filgotinib (GLPG0634)]
The receptor occupancy at 10 µM of the first is higher: -17.4% for the first, -21.6% for the second.

Going from `Cc1[nH]c(/C=C2\C(=O)Nc3ccc(S(=O)(=O)N(C)c4cccc(Cl)c4)cc32)c(C)c1C(=O)N1CCN(C)CC1` [SU11274] to `CCS(=O)(=O)c1cccc(-c2cc(C(=O)NC3CCN(C)CC3)c(C)c3[nH]c4ncc(C)cc4c23)c1` [TAK-901], the receptor occupancy at 10 µM falls from -6% to -9.1%.

Going from `O=C1NC(=O)/C(=C/c2ccc3nccc(-c4ccncc4)c3c2)S1` [GSK1059615] to `O=C(/C=C/c1ccc(O)c(O)c1)c1ccc(O)cc1O` [Butein], the receptor occupancy at 10 µM falls from -1.5% to -25%.

Compound `COc1cccc2cc(-c3nc([C@H]4CC[C@H](C(=O)O)CC4)n4ncnc(N)c34)[nH]c12` [OSI-027] has a receptor occupancy at 10 µM of -23.2%.

target: T1, LmxCLK1 (Leishmania mexicana, UniProt E9AMP2); assay: biochemical; format: binding; settings: DSF, 10 µM compound, 2 µM LmxCLK1, Run 1; read-out: ΔTm Run 1
T1 sequence (E9AMP2 1-422): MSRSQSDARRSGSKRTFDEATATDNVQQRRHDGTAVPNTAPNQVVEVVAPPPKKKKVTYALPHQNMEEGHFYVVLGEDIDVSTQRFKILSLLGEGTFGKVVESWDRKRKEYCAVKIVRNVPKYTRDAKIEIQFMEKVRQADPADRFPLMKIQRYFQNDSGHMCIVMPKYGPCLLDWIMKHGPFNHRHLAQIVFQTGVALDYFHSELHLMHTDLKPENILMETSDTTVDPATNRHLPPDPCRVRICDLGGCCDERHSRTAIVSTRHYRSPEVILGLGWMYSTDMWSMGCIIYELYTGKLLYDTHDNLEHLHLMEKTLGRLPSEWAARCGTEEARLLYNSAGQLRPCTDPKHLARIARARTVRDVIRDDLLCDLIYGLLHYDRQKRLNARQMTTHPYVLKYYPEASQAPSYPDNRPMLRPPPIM

`C[C@H]1[C@H](C)CC[C@]2(C(=O)O)CC[C@]3(C)C(=CC[C@@H]4[C@@]5(C)C[C@@H](O)[C@H](O)[C@@](C)(CO)[C@@H]5CC[C@]43C)[C@H]12` [Asiatic Acid] and `O=C(Nc1nc2cccc(-c3ccc(CN4CCS(=O)(=O)CC4)cc3)n2n1)C1CC1` [Filgotinib (GLPG0634)] are the same in ΔTm at 10 µM: 0.2 °C for the first, 0.2 °C for the second.

Going from `Cc1[nH]c(/C=C2\C(=O)Nc3ccc(S(=O)(=O)N(C)c4cccc(Cl)c4)cc32)c(C)c1C(=O)N1CCN(C)CC1` [SU11274] to `CCS(=O)(=O)c1cccc(-c2cc(C(=O)NC3CCN(C)CC3)c(C)c3[nH]c4ncc(C)cc4c23)c1` [TAK-901], the ΔTm at 10 µM rises from -0.1 °C to 1.5 °C.

First: O=C1NC(=O)/C(=C/c2ccc3nccc(-c4ccncc4)c3c2)S1 [GSK1059615]
Second: O=C(/C=C/c1ccc(O)c(O)c1)c1ccc(O)cc1O [Butein]
The ΔTm at 10 µM of the first is higher: 0.3 °C for the first, 0 °C for the second.

Compound `COc1cccc2cc(-c3nc([C@H]4CC[C@H](C(=O)O)CC4)n4ncnc(N)c34)[nH]c12` [OSI-027] has a ΔTm at 10 µM of 0.1 °C.

same assay, conditions: DSF, 10 µM compound, 2 µM LmxCLK1, Run 2; read-out: ΔTm Run 2

Going from `C[C@H]1[C@H](C)CC[C@]2(C(=O)O)CC[C@]3(C)C(=CC[C@@H]4[C@@]5(C)C[C@@H](O)[C@H](O)[C@@](C)(CO)[C@@H]5CC[C@]43C)[C@H]12` [Asiatic Acid] to `O=C(Nc1nc2cccc(-c3ccc(CN4CCS(=O)(=O)CC4)cc3)n2n1)C1CC1` [Filgotinib (GLPG0634)], the ΔTm at 10 µM falls from 0.1 °C to -0.4 °C.

Going from `Cc1[nH]c(/C=C2\C(=O)Nc3ccc(S(=O)(=O)N(C)c4cccc(Cl)c4)cc32)c(C)c1C(=O)N1CCN(C)CC1` [SU11274] to `CCS(=O)(=O)c1cccc(-c2cc(C(=O)NC3CCN(C)CC3)c(C)c3[nH]c4ncc(C)cc4c23)c1` [TAK-901], the ΔTm at 10 µM rises from -0.2 °C to 1.1 °C.

Going from `O=C1NC(=O)/C(=C/c2ccc3nccc(-c4ccncc4)c3c2)S1` [GSK1059615] to `O=C(/C=C/c1ccc(O)c(O)c1)c1ccc(O)cc1O` [Butein], the ΔTm at 10 µM rises from -0.2 °C to 0.4 °C.

With `COc1cccc2cc(-c3nc([C@H]4CC[C@H](C(=O)O)CC4)n4ncnc(N)c34)[nH]c12` [OSI-027] the ΔTm at 10 µM was -0.4 °C.

same assay, conditions: DSF, 10 µM compound, 2 µM LmxCLK1, mean of two runs; read-out: ΔTm Average

Compared with `C[C@H]1[C@H](C)CC[C@]2(C(=O)O)CC[C@]3(C)C(=CC[C@@H]4[C@@]5(C)C[C@@H](O)[C@H](O)[C@@](C)(CO)[C@@H]5CC[C@]43C)[C@H]12` [Asiatic Acid], `O=C(Nc1nc2cccc(-c3ccc(CN4CCS(=O)(=O)CC4)cc3)n2n1)C1CC1` [Filgotinib (GLPG0634)] is lower in ΔTm at 10 µM: 0.2 °C for the first, -0.1 °C for the second.

Going from `Cc1[nH]c(/C=C2\C(=O)Nc3ccc(S(=O)(=O)N(C)c4cccc(Cl)c4)cc32)c(C)c1C(=O)N1CCN(C)CC1` [SU11274] to `CCS(=O)(=O)c1cccc(-c2cc(C(=O)NC3CCN(C)CC3)c(C)c3[nH]c4ncc(C)cc4c23)c1` [TAK-901], the ΔTm at 10 µM rises from -0.2 °C to 1.3 °C.

First: O=C1NC(=O)/C(=C/c2ccc3nccc(-c4ccncc4)c3c2)S1 [GSK1059615]
Second: O=C(/C=C/c1ccc(O)c(O)c1)c1ccc(O)cc1O [Butein]
The ΔTm at 10 µM of the first is lower: 0 °C for the first, 0.2 °C for the second.

With `COc1cccc2cc(-c3nc([C@H]4CC[C@H](C(=O)O)CC4)n4ncnc(N)c34)[nH]c12` [OSI-027] the ΔTm at 10 µM was -0.2 °C.
